According to the CheMixHub viscosity set:

Assay: xn = mol fraction of the nth substance listed

C=CC(=O)OC + CCCCCCCCCCCC
viscosity [mPa·s], 100 kPa
Conditions	x1 = 0.0959	x1 = 0.1996	x1 = 0.3063	x1 = 0.4005	x1 = 0.5043	x1 = 0.603	x1 = 0.7008	x1 = 0.8015	x1 = 0.8993
303.15 K	1.129	1.019	0.916	0.831	0.745	0.67	0.601	0.54	0.486
308.15 K	1.017	0.918	0.825	0.751	0.674	0.611	0.554	0.502	0.458
313.15 K	0.963	0.867	0.779	0.709	0.638	0.58	0.528	0.478	0.438

C=CC(=O)OC + CCCCCCCCCCCCC
viscosity [mPa·s], 100 kPa
Conditions	x1 = 0.1018	x1 = 0.1995	x1 = 0.3067	x1 = 0.4044	x1 = 0.5002	x1 = 0.6038	x1 = 0.7058	x1 = 0.8043	x1 = 0.9012
303.15 K	1.375	1.235	1.091	0.974	0.868	0.765	0.673	0.593	0.513
308.15 K	1.178	1.058	0.936	0.838	0.752	0.669	0.598	0.538	0.477
313.15 K	1.056	0.953	0.845	0.762	0.689	0.618	0.554	0.498	0.446

CC(C)(C)c1ccccc1 + CCCCCCCCCCCCCCCC
viscosity [mPa·s], 100 kPa
Conditions	x2 = 0.0661	x2 = 0.106	x2 = 0.2088	x2 = 0.3087	x2 = 0.3877	x2 = 0.5114	x2 = 0.621	x2 = 0.6915	x2 = 0.8377	x2 = 0.9225
298.15 K	1.236	1.297	1.442	1.566	1.675	1.87	2.073	2.235	2.597	2.821
308.15 K	1.065	1.111	1.235	1.343	1.427	1.584	1.749	1.868	2.138	2.298
318.15 K	0.928	0.968	1.072	1.17	1.247	1.382	1.513	1.606	1.804	1.914

CCCCCCCCCCCCc1ccccc1 + CCCCCCCCCCCCCCCC
viscosity [mPa·s], 102 kPa
Conditions	x1 = 0.09264	x1 = 0.1868	x1 = 0.2826	x1 = 0.3803	x1 = 0.4789	x1 = 0.5793	x1 = 0.6819	x1 = 0.786	x1 = 0.892
293.15 K	3.55	3.67	3.82	3.99	4.16	4.36	4.59	4.85	5.14
303.15 K	2.81	2.9	3.01	3.13	3.26	3.41	3.58	3.76	3.97
313.15 K	2.27	2.35	2.43	2.52	2.63	2.74	2.86	3	3.16
323.15 K	1.88	1.94	2.01	2.08	2.16	2.25	2.34	2.45	2.57

C=CC(=O)OC + CCCCCCCCCCO
viscosity [mPa·s], 101.3 kPa
Conditions	x1 = 0.1056	x1 = 0.2709	x1 = 0.3442	x1 = 0.4717	x1 = 0.5843	x1 = 0.7574	x1 = 0.8309	x1 = 0.8923	x1 = 0.9483	x1 = 0.9749
298.15 K	7.732	4.826	3.593	2.331	1.712	0.938	0.738	0.639	0.519	0.482
308.15 K	5.659	3.531	2.828	1.792	1.425	0.804	0.641	0.54	0.459	0.432

C=CC(=O)OCCCC + CCCCCCCCCCO
viscosity [mPa·s], 101.3 kPa
Conditions	x1 = 0.0646	x1 = 0.1907	x1 = 0.2493	x1 = 0.3612	x1 = 0.4732	x1 = 0.665	x1 = 0.756	x1 = 0.8402	x1 = 0.9227	x1 = 0.9615
298.15 K	9.073	5.873	4.998	3.536	2.535	1.653	1.303	1.07	0.905	0.843
308.15 K	6.488	4.404	3.679	2.762	2.073	1.301	1.115	0.897	0.781	0.723

C=CC(=O)OC + CCCCCCCCO
viscosity [mPa·s], 101.3 kPa
Conditions	x1 = 0.0847	x1 = 0.2398	x1 = 0.3089	x1 = 0.4269	x1 = 0.5391	x1 = 0.7233	x1 = 0.8011	x1 = 0.8748	x1 = 0.9408	x1 = 0.9698
298.15 K	5.555	3.533	2.795	1.948	1.353	0.857	0.692	0.566	0.506	0.47
308.15 K	4.155	2.757	2.06	1.583	1.127	0.732	0.622	0.497	0.433	0.415

C=CC(=O)OCCCC + CCCCCCCCO
viscosity [mPa·s], 101.3 kPa
Conditions	x1 = 0.0586	x1 = 0.1668	x1 = 0.2181	x1 = 0.3218	x1 = 0.4238	x1 = 0.6226	x1 = 0.7052	x1 = 0.8125	x1 = 0.9095	x1 = 0.9529
298.15 K	5.944	4.17	3.544	2.729	2.165	1.403	1.232	0.998	0.9	0.85
308.15 K	4.393	3.177	2.752	2.096	1.689	1.146	0.992	0.841	0.753	0.715

C=CC(=O)OC + CCCCCCCO
viscosity [mPa·s], 101.3 kPa
Conditions	x1 = 0.0803	x1 = 0.219	x1 = 0.2841	x1 = 0.4009	x1 = 0.5184	x1 = 0.7017	x1 = 0.7824	x1 = 0.8604	x1 = 0.9347	x1 = 0.9686
298.15 K	4.278	2.912	2.304	1.632	1.218	0.783	0.653	0.563	0.493	0.467
308.15 K	3.262	2.282	1.857	1.348	1.032	0.677	0.568	0.49	0.428	0.411

C=CC(=O)OCCCC + CCCCCCCO
viscosity [mPa·s], 101.3 kPa
Conditions	x1 = 0.0538	x1 = 0.1451	x1 = 0.1979	x1 = 0.2976	x1 = 0.5964	x1 = 0.6984	x1 = 0.7966	x1 = 0.8968	x1 = 0.9498
298.15 K	4.656	3.548	3.084	2.394	1.35	1.12	0.981	0.869	0.824
308.15 K	3.481	2.761	2.398	1.922	1.084	0.925	0.836	0.736	0.705

C=CC(=O)OC + CCCCCCO
viscosity [mPa·s], 101.33 kPa
Conditions	308.15 K	318.15 K
x1 = 0.0466	2.892	2.186
x1 = 0.149	2.128	1.687
x1 = 0.2479	1.616	1.331
x1 = 0.3487	1.247	1.059
x1 = 0.4466	0.989	0.859
x1 = 0.4989	0.881	0.772
x1 = 0.5479	0.795	0.701
x1 = 0.6418	0.662	0.588
x1 = 0.7501	0.549	0.486
x1 = 0.8501	0.472	0.414
x1 = 0.9438	0.417	0.36

CCCCCCCCCCCCCC(=O)OC + CCCCCO
viscosity [mPa·s], 100 kPa
Conditions	x2 = 0.1012	x2 = 0.2002	x2 = 0.2997	x2 = 0.4007	x2 = 0.4997	x2 = 0.6007	x2 = 0.7006	x2 = 0.7997	x2 = 0.9
293.15 K	4.279	4.092	3.927	3.791	3.695	3.592	3.512	3.539	3.679
298.15 K	3.789	3.61	3.474	3.371	3.249	3.162	3.1	3.1	3.191
303.15 K	3.336	3.189	3.071	2.96	2.868	2.794	2.729	2.72	2.795
308.15 K	2.932	2.809	2.701	2.603	2.524	2.454	2.397	2.384	2.429
313.15 K	2.641	2.533	2.43	2.342	2.268	2.197	2.15	2.126	2.159
318.15 K	2.42	2.318	2.234	2.142	2.071	2.006	1.96	1.938	1.949
323.15 K	2.18	2.089	2.009	1.931	1.865	1.803	1.764	1.73	1.738
